Test results: patent US6355799B1, “Substituted benzene compounds, process for their preparation, and herbicidal and defoliant compositions containing them” (ISK Americas Incorporated, priority 1997, dated 2002)

Key:
Format in all cases: in vivo
[1] = test system: field corn (Zea mays L., var. Dekalb 535, CORN); assay: Post-emerge test, crop safety; settings: post-emerge, 14 days after application, rating scale 0-100
In short: (§1)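 Rating: 0–100 visual injury, 14 DAA. Application: acetone, 187 l/ha, 15–1000 g ai/ha, flat-fan track sprayer with nozzle 40–45 cm above soil or canopy. Post-emerge runs used 0.25% v/v surfactant on 2–3 leaf plants.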

[2] = test system: upland rice (Oryza sp., var. Tebonnet, RICE); assay: Post-emerge test, crop safety; settings: post-emerge, 14 days after application, rating scale 0-100
In short: as §1

[3] = test system: large crabgrass (Digitaria sanguinalis, DIGSA); assay: Pre-emerge test, greenhouse herbicide activity screening; settings: pre-emerge, 14 days after application, rating scale 0-100
In short: (§2)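 Compounds in acetone were track-sprayed at 15–1000 g ai/ha: pre-emergence onto soil sown the previous day, then top-watered to incorporate and later bottom-watered; post-emergence onto 2–3 leaf plants with 0.25% v/v surfactant, bottom-watered only. Ratings on a 0–100 phytotoxicity scale were taken at day 14.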

[4] = test system: common ragweed (Ambrosia artemisizfolia L., AMBEL); assay: as above; settings: pre-emerge, 14 days after application, rating scale 0-100
In short: as §2

[5] = test system: velvetleaf (Abutilon theophrasti, ABUTH); assay: as above; settings: pre-emerge, 14 days after application, rating scale 0-100
In short: as §2

[6] = test system: ivyleaf morningglory (Ipomoea hederacea, IPOHE); assay: as above; settings: pre-emerge, 14 days after application, rating scale 0-100
In short: as §2

[7] = test system: lambsquarters (Chenopodium album, CHEAL); assay: as above; settings: pre-emerge, 14 days after application, rating scale 0-100
In short: as §2

[8] = test system: barnyardgrass (Echinochloa crus-galli, ECHCG); assay: as above; settings: pre-emerge, 14 days after application, rating scale 0-100
In short: as §2

[9] = test system: green foxtail (Setaria viridis, SETVI); assay: as above; settings: pre-emerge, 14 days after application, rating scale 0-100
In short: as §2

[10] = test system: sicklepod (Cassia obtusifolia, CASOB); assay: as above; settings: pre-emerge, 14 days after application, rating scale 0-100
In short: as §2

[11] = test system: johnsongrass (Sorghum halepense, SORHA); assay: as above; settings: pre-emerge, 14 days after application, rating scale 0-100
In short: as §2

[12] = test system: redroot pigweed (Amaranthus retroflexus, AMARE); assay: as above; settings: pre-emerge, 14 days after application, rating scale 0-100
In short: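 Plants grown in 10 cm pots of sandy loam mix received acetone-dissolved compounds through a moving flat-fan nozzle. Doses ranged from 15 to 1000 g ai/ha. Pre-emerge pots were seeded one day earlier, post-emerge pots 8–21 days earlier. Fourteen days on, each pot was graded 0–100 for damage.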

[13] = test system: field corn (Zea mays L., var. Dekalb 535, CORN); assay: Pre-emerge test, crop safety; settings: pre-emerge, 14 days after application, rating scale 0-100
In short: (§3)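 Visual ratings on a 0-100 scale (0 no damage, 100 all plants dead) were taken at 14 days after treatment. Rates of 15-1000 g ai/ha in acetone, 187 l/ha, were sprayed onto soil one day after planting (pre-emerge) or onto 2-3 leaf plants with 0.25% v/v surfactant (post-emerge).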

[14] = test system: upland rice (Oryza sp., var. Tebonnet, RICE); assay: Pre-emerge test, crop safety; settings: pre-emerge, 14 days after application, rating scale 0-100
In short: as §3

[15] = test system: large crabgrass (Digitaria sanguinalis, DIGSA); assay: Post-emerge test, greenhouse herbicide activity screening; settings: post-emerge, 14 days after application, rating scale 0-100
In short: (§4)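 Compounds in acetone were track-sprayed at 187 l/ha, 15–1000 g ai/ha, onto sandy loam pots. Pre-emerge seeds were sown one day before spraying, with surface watering afterwards. Post-emerge plants were at the 2–3 leaf stage and sprayed with 0.25% v/v non-ionic surfactant. Injury was rated 0–100 at 14 days.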

[16] = test system: common ragweed (Ambrosia artemisizfolia L., AMBEL); assay: as above; settings: post-emerge, 14 days after application, rating scale 0-100
In short: as §4

[17] = test system: velvetleaf (Abutilon theophrasti, ABUTH); assay: as above; settings: post-emerge, 14 days after application, rating scale 0-100
In short: as §4

[18] = test system: ivyleaf morningglory (Ipomoea hederacea, IPOHE); assay: as above; settings: post-emerge, 14 days after application, rating scale 0-100
In short: as §4

[19] = test system: lambsquarters (Chenopodium album, CHEAL); assay: as above; settings: post-emerge, 14 days after application, rating scale 0-100
In short: as §4

[20] = test system: barnyardgrass (Echinochloa crus-galli, ECHCG); assay: as above; settings: post-emerge, 14 days after application, rating scale 0-100
In short: as §4

[21] = test system: green foxtail (Setaria viridis, SETVI); assay: as above; settings: post-emerge, 14 days after application, rating scale 0-100
In short: as §4

[22] = test system: sicklepod (Cassia obtusifolia, CASOB); assay: as above; settings: post-emerge, 14 days after application, rating scale 0-100
In short: as §4

[23] = test system: redroot pigweed (Amaranthus retroflexus, AMARE); assay: as above; settings: post-emerge, 14 days after application
In short: as §4

For `CCOC(=O)C(Cl)Cc1c(OCC)c(Cl)cc(F)c1-n1c(=O)cc(C(F)(F)F)n(C)c1=O` (stereo not shown) [14-63], the “Post-emerge Herbicidal Activity CORN (crop damage rating)” value ([1]; 63 g ai/ha) was 35, the “Post-emerge Herbicidal Activity CORN (crop damage rating)” value ([1]; 250 g ai/ha) was 80 and the “Post-emerge Herbicidal Activity RICE (crop damage rating)” value ([2]; 63 g ai/ha) was 5. For the same compound, the “Post-emerge Herbicidal Activity RICE (crop damage rating)” value ([2]; 250 g ai/ha) was 15, the “phytotoxicity rating DIGSA” value ([3]; 63 g ai/ha) was 70 and the “phytotoxicity rating DIGSA” value ([3]; 250 g ai/ha) was 100. For the same compound, the “phytotoxicity rating AMBEL” value ([4]; 63 g ai/ha) was 0, the “phytotoxicity rating AMBEL” value ([4]; 250 g ai/ha) was 60 and the “phytotoxicity rating ABUTH” value ([5]; 63 g ai/ha) was 70. For the same compound, the “phytotoxicity rating ABUTH” value ([5]; 250 g ai/ha) was 100, the “phytotoxicity rating IPOHE” value ([6]; 63 g ai/ha) was 0 and the “phytotoxicity rating IPOHE” value ([6]; 250 g ai/ha) was 0. The “phytotoxicity rating CHEAL” value ([7]; 63 g ai/ha) was 80, the “phytotoxicity rating CHEAL” value ([7]; 250 g ai/ha) was 99 and the “phytotoxicity rating ECHCG” value ([8]; 63 g ai/ha) was 0. For the same compound, the “phytotoxicity rating ECHCG” value ([8]; 250 g ai/ha) was 50, the “phytotoxicity rating SETVI” value ([9]; 63 g ai/ha) was 30 and the “phytotoxicity rating SETVI” value ([9]; 250 g ai/ha) was 99. For the same compound, the “phytotoxicity rating CASOB” value ([10]; 63 g ai/ha) was 0, the “phytotoxicity rating CASOB” value ([10]; 250 g ai/ha) was 50 and the “phytotoxicity rating SORHA” value ([11]; 63 g ai/ha) was 0. For the same compound, the “phytotoxicity rating SORHA” value ([11]; 250 g ai/ha) was 20, the “phytotoxicity rating AMARE” value ([12]; 63 g ai/ha) was 99 and the “phytotoxicity rating AMARE” value ([12]; 250 g ai/ha) was 100. The “phytotoxicity rating CORN” value ([13]; 63 g ai/ha) was 0, the “phytotoxicity rating CORN” value ([13]; 250 g ai/ha) was 0 and the “phytotoxicity rating RICE” value ([14]; 63 g ai/ha) was 0. The “phytotoxicity rating RICE” value ([14]; 250 g ai/ha) was 0, the “Post-emerge Herbicidal Activity DIGSA (phytotoxicity rating)” value ([15]; 63 g ai/ha) was 40 and the “Post-emerge Herbicidal Activity DIGSA (phytotoxicity rating)” value ([15]; 250 g ai/ha) was 90. For the same compound, the “Post-emerge Herbicidal Activity AMBEL (phytotoxicity rating)” value ([16]; 63 g ai/ha) was 20, the “Post-emerge Herbicidal Activity AMBEL (phytotoxicity rating)” value ([16]; 250 g ai/ha) was 50 and the “Post-emerge Herbicidal Activity ABUTH (phytotoxicity rating)” value ([17]; 63 g ai/ha) was 90. The “Post-emerge Herbicidal Activity ABUTH (phytotoxicity rating)” value ([17]; 250 g ai/ha) was 100, the “Post-emerge Herbicidal Activity IPOHE (phytotoxicity rating)” value ([18]; 63 g ai/ha) was 70 and the “Post-emerge Herbicidal Activity IPOHE (phytotoxicity rating)” value ([18]; 250 g ai/ha) was 70. For the same compound, the “Post-emerge Herbicidal Activity CHEAL (phytotoxicity rating)” value ([19]; 63 g ai/ha) was 80, the “Post-emerge Herbicidal Activity CHEAL (phytotoxicity rating)” value ([19]; 250 g ai/ha) was 100 and the “Post-emerge Herbicidal Activity ECHCG (phytotoxicity rating)” value ([20]; 63 g ai/ha) was 100. The “Post-emerge Herbicidal Activity ECHCG (phytotoxicity rating)” value ([20]; 250 g ai/ha) was 99, the “Post-emerge Herbicidal Activity SETVI (phytotoxicity rating)” value ([21]; 63 g ai/ha) was 50 and the “Post-emerge Herbicidal Activity SETVI (phytotoxicity rating)” value ([21]; 250 g ai/ha) was 70. The “Post-emerge Herbicidal Activity CASOB (phytotoxicity rating)” value ([22]; 63 g ai/ha) was 95, the “Post-emerge Herbicidal Activity CASOB (phytotoxicity rating)” value ([22]; 250 g ai/ha) was 100 and the “Post-emerge Herbicidal Activity AMARE (phytotoxicity rating)” value ([23]; 63 g ai/ha, rating scale 0-100 (0 no damage, 100 complete death)) was 95. For the same compound, the “Post-emerge Herbicidal Activity AMARE (phytotoxicity rating)” value ([23]; 250 g ai/ha, rating scale 0-100) was 100.
